Assay results published in US10485844B2, “Methods for treating severe atopic dermatitis by administering an IL-4R inhibitor” (Regeneron Pharmaceuticals, Inc., priority 2016, dated 2019).
Like-named read-outs stand apart in the source and are kept apart here. Marks after values point to notes of the source that are not given here.

Key:
[1] = test system: adults with moderate-to-severe atopic dermatitis; assay: Phase 3 open-label trial: dupilumab-naïve vs retreated patients (treatment interruption); details: for adverse events/100 patient years: to Wk52; for decrease in peak pruritus NRS score from baseline of parent study / patients who achieved EASI-75 (from baseline of parent study) / patients with Investigator's Global Assessment score of 0 or 1: Wk52
Procedure: This Example presents an interim analysis of an ongoing multicenter, open-label trial (NCT01949311) of dupilumab treatment for up to 3 yrs. Adults with moderate-to-severe atopic dermatitis (AD) were enrolled after participation in prior dupilumab trials. Safety and efficacy at Week [Wk] 52 for dupilumab naïve (previously unexposed) and retreated (>13 Wk gap between parent and open-label study) patients were evaluated.

[2] = test system: adults with moderate-to-severe AD; details: for decrease in mean EASI (SD) score: 600 mg on Day 8, then 300 mg weekly
Procedure: Subcutaneous dupilumab was administered as a 600 mg loading dose on Day 8, followed by a weekly dose of 300 mg from Day 15 to Day 50. PK parameters included Geometric Mean Ratios (GMR) of AUClast (area under the plasma concentration-time curve from time zero to the time of the last quantifiable concentration) and Cmax (maximum observed plasma concentration) measured at Day 1 and Day 36, while efficacy assessments included changes in Eczema Area and Severity Index (EASI) scores (scale 0-72).

[3] = test system: adult patients with severe AD; assay: 16-week randomized placebo-controlled trial of dupilumab + TCS in adults with severe AD not adequately controlled with or intolerant to cyclosporine A (efficacy and safety); details: for % change from baseline in SCORAD / % change in baseline in weekly average of peak daily pruritus NRS / % patients with EASI-75 / % patients with IGA 0 or 1 and reduction from baseline of ≥2 points / Change from baseline in % BSA / Change from baseline in DLQI / Change from baseline in HADS / Change from baseline in POEM / % patients with EASI-75 for patients with prior CSA use / % patients with reduction of weekly average peak daily pruritus NRS ≥4 from baseline: week 16; for % patients with EASI-75 for patients with prior CSA use: N = 69; for % patients with reduction of weekly average peak daily pruritus NRS ≥4 from baseline: N = 94;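 as to all read-outs here: subcutaneous dosing after a 600 mg loading dose on day 1, with standardized medium-potency TCS background from day −14, compared against matching injectable placebo arm, 1:1:1 randomization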
From the text: The study comprises a 2-week screening period, a 2-week medium-potency TCS standardization period, a 16-week treatment period, and a 12-week safety follow up period. […] All patients receive concomitant medium-potency TCS as background concomitant therapy to reflect standard of care treatment of this severe population.
Starting on day −14, all patients initiate a standardized TCS treatment regimen, and continue the standardized medium-potency regimen through the end of the treatment period (week 16). During the 12-week follow-up period, they may continue to receive TCS at the discretion of the investigator, for intolerable AD disease activity.
Patients who continue to meet eligibility criteria at baseline (day 1) undergo assessments and are randomized in a 1:1:1 ratio to receive either once-weekly (qw) or every 2 week (q2w) subcutaneous (SC) injections of 300 mg dupilumab (following an SC loading dose of 600 mg on day 1), or matching injectable placebo, including the placebo for the loading dose. During weeks in which dupilumab is not administered (in the q2w regimen), patients receive injectable placebo.
Patients receive either qw SC injections of 300 mg dupilumab (following a loading dose of 600 mg on day 1), or q2w SC injections of 300 mg dupilumab (following a loading dose of 600 mg on day 1) during the 16-week treatment period. During weeks in which dupilumab is not administered (in the q2w regimen), patients receive injectable placebo.
The primary endpoint in the study is: the proportion of patients with Eczema Area and Severity Index (EASI) 75 (≥75% improvement from baseline) at week 16.
⋅ Proportion of patients with EASI 75 (75% improvement from baseline) at week 16 for patients with prior CSA use; ⋅ Proportion of patients with IGA 0 or 1 (on a 5-point scale) and a reduction from baseline of points at week 16; ⋅ Percent change from baseline to week 16 in the pruritus numerical rating scale (NRS); ⋅ Proportion of patients with improvement (reduction) of pruritus NRS at week 16; ⋅ Percent change from baseline to week 16 in the EASI score; ⋅ Change from baseline to week 16 in percent body surface area (BSA); ⋅ Percent change from baseline to week 16 in the SCORing Atopic Dermatitis (SCORAD); ⋅ Proportion of patients with SCORAD 50 (≥50% improvement from baseline) at week 16; ⋅ Percent change from baseline to week 16 in the Global Individual Signs Score (GISS) (erythema, infiltration/papulation, excoriations, lichenification); ⋅ Change from baseline to week 16 in the Dermatology Life Quality Index (DLQI); ⋅ Change from baseline to week 16 in the Patient Oriented Eczema Measure (POEM); ⋅ Change from baseline to week 16 in the Hospital Anxiety and Depression Scale (HADS); ⋅ Percent change from baseline to week 2 in the pruritus NRS; ⋅ Mean weekly dose of TCS through week 16
A variety of parameters are collected during the study to assess efficacy/effectiveness of dupilumab including measures of AD severity, use of concomitant treatment for AD, and patient reported measures of AD symptoms and QOL. Efficacy is assessed using pruritus NRS, pruritus categorical scale, POEM, HADS, DLQI, the European Quality of Life-5 Dimensions (EQ-5D), Patient Global Assessment of Disease, Patient Global Assessment of Treatment, Asthma Control Questionnaire (ACQ-5), the Sino-Nasal Outcome Test (SNOT-22), assessment of sick leave/missed school days, IGA, EASI, BSA of involvement of AD, GISS and SCORAD.

[4] = 300 mg dupilumab q2w + TCS (N = 107), 16-week treatment period
[5] = 300 mg dupilumab q2w + TCS, Week 16
[6] = expected at the end of the study period

Substance: dupilumab: fully human anti-IL-4R antibody; heavy chain SEQ ID NO: 9, light chain SEQ ID NO: 10
- serious AEs/100PY ([1]; dupilumab-naïve patients): 11.7 serious AEs/100PY
- treatment discontinuations due to AEs ([1]; dupilumab-naïve patients): 2.6%
- adverse events/100 patient years ([1]; dupilumab-naïve patients (n=116)): 432.5 AEs/100PY
- deaths ([1]; naïve and retreated patients): no deaths
- decrease in peak pruritus NRS score from baseline of parent study ([1]; naïve patients): 64.9%
- patients who achieved EASI-75 (from baseline of parent study) ([1]; naïve patients): 73.3%
- patients with Investigator's Global Assessment score of 0 or 1 ([1]; naïve patients): 49.1%
- serious AEs/100PY ([1]; retreated patients): 5.4 serious AEs/100PY
- treatment discontinuations due to AEs ([1]; retreated patients): 2.8%
- adverse events/100 patient years ([1]; retreated patients (>13 Wk gap; n=290)): 371.0 AEs/100PY
- decrease in peak pruritus NRS score from baseline of parent study ([1]; retreated patients): 60.6%
- patients who achieved EASI-75 (from baseline of parent study) ([1]; retreated patients): 80.7%
- patients with Investigator's Global Assessment score of 0 or 1 ([1]; retreated patients): 50.7%
- decrease in mean EASI (SD) score ([2]; Day 35): 59.3% (37.6)
- decrease in mean EASI (SD) score ([2]; Day 50): 87.2% (13.4)
- patients with at least one adverse event (AE) ([2]; in vivo): 3 patients
- serious AE leading to treatment discontinuation (systemic inflammatory response syndrome) ([2]; in vivo): 1
- DLQI score, mean change from baseline to Week 16 (±SE) ([3]; 300 mg dupilumab q2w + TCS): −9.7 (0.64)***^
- DLQI score: Proportion of Patients with ≥4-point improvement at Week 16 ([3]; 300 mg dupilumab q2w + TCS): 85 (79.4)*** %
- POEM score, mean change from baseline to Week 16 (±SE) ([3]; 300 mg dupilumab q2w + TCS): −11.7 (0.68)***
- POEM score: Proportion of patients with ≥4-point improvement at Week 16 ([3]; 300 mg dupilumab q2w + TCS): 89 (83.2)*** %
- Proportion of patients with DLQI 0 or 1 at Week 16 ([3]; 300 mg dupilumab q2w + TCS): 32 (29.9)** %
- Atopic dermatitis (AE), n (%) [3, 4]: (7.5) %
- Conjunctivitis allergic, n (%) [3, 4]: (15.0) %
- Conjunctivitis, n (%) [3, 4]: (11.2) %
- Headache, n (%) [3, 4]: (9.3) %
- Nasopharyngitis, n (%) [3, 4]: (20.6) %
- Number of patients with TEAEs, n (%) [3, 4]: (72.0) %
- Rhinitis allergic, n (%) [3, 4]: (6.5) %
- DLQI: Proportion of patients reporting “no impact” or “little impact”: Affected social, leisure activity [3, 5]: (91.6)*** %
- DLQI: Proportion of patients reporting “no impact” or “little impact”: Caused any sexual difficulties [3, 5]: (93.5)*** %
- DLQI: Proportion of patients reporting “no impact” or “little impact”: How embarrassed, self-conscious [3, 5]: (86.9)*** %
- DLQI: Proportion of patients reporting “no impact” or “little impact”: How itchy, sore, painful, stinging [3, 5]: (83.2)*** %
- DLQI: Proportion of patients reporting “no impact” or “little impact”: How much a problem is treatment [3, 5]: (89.7)*** %
- DLQI: Proportion of patients reporting “no impact” or “little impact”: Influenced clothes you wear [3, 5]: (84.1)*** %
- DLQI: Proportion of patients reporting “no impact” or “little impact”: Interfered shopping, home, yard [3, 5]: (93.5)*** %
- DLQI: Proportion of patients reporting “no impact” or “little impact”: Made it difficult to do any sports [3, 5]: (90.7)*** %
- DLQI: Proportion of patients reporting “no impact” or “little impact”: Prevented/problem at working or studying [3, 5]: (91.6)*** %
- DLQI: Proportion of patients reporting “no impact” or “little impact”: Problem partner, friends, relative [3, 5]: (95.3)*** %
- POEM: Proportion of patients reporting ‘no days’ or ‘1-2 days’: Last week days been weeping/oozing [3, 5]: (87.9)*** %
- POEM: Proportion of patients reporting ‘no days’ or ‘1-2 days’: Last week days skin been bleeding [3, 5]: (84.1)*** %
- POEM: Proportion of patients reporting ‘no days’ or ‘1-2 days’: Last week days skin been cracked [3, 5]: (75.7)*** %
- POEM: Proportion of patients reporting ‘no days’ or ‘1-2 days’: Last week days skin been flaking off [3, 5]: (65.4)*** %
- POEM: Proportion of patients reporting ‘no days’ or ‘1-2 days’: Last week days skin been itchy [3, 5]: (45.8)*** %
- POEM: Proportion of patients reporting ‘no days’ or ‘1-2 days’: Last week days skin felt dry or rough [3, 5]: (59.8)*** %
- POEM: Proportion of patients reporting ‘no days’ or ‘1-2 days’: Last week nights sleep been disturbed [3, 5]: (83.2)*** %
- SCORAD VAS sleep loss, LS mean percent change from baseline to Week 16 (±SE) ([3]; 300 mg dupilumab q2w + TCS, n = 98): −61.2 (34.38)* percent
- SCORAD VAS sleep loss, LS mean change from baseline to Week 16 (±SE) ([3]; 300 mg dupilumab q2w + TCS, n = 106): −3.0 (0.25)***^
- Pruritus NRS: Proportion of patients with ≥3-point improvement at Week 16 ([3]; 300 mg dupilumab q2w + TCS, patients with baseline peak pruritus NRS ≥3): 56/99 (56.6)*** %
- Pruritus NRS: Proportion of patients with ≥4-point improvement at Week 16 ([3]; 300 mg dupilumab q2w + TCS, patients with baseline peak pruritus NRS ≥4): 43/94 (45.7)*** %
- deaths during the study ([3]; all treatment groups): No deaths
- skin infections vs placebo ([3]; combined dupilumab-treated groups): fewer skin infections
- % change in EASI score from baseline to week 16 ([3]; dupilumab 300 mg q2w + TCS): −79.8%
- Mean weekly dose of TCS use during the treatment period ([3]; dupilumab 300 mg q2w + TCS): 15.0
- % change from baseline in SCORAD ([3]; dupilumab 300 mg q2w + TCS): −58.3%
- % change in baseline in weekly average of peak daily pruritus NRS ([3]; dupilumab 300 mg q2w + TCS): −53.9%
- % patients with EASI-75 ([3]; dupilumab 300 mg q2w + TCS): 62.6%
- % patients with IGA 0 or 1 and reduction from baseline of ≥2 points ([3]; dupilumab 300 mg q2w + TCS): 40.2%
- Change from baseline in % BSA ([3]; dupilumab 300 mg q2w + TCS): −39.2 % BSA
- Change from baseline in DLQI ([3]; dupilumab 300 mg q2w + TCS): −9.6
- Change from baseline in HADS ([3]; dupilumab 300 mg q2w + TCS): −6.1
- Change from baseline in POEM ([3]; dupilumab 300 mg q2w + TCS): −11.9
- % patients with EASI-75 for patients with prior CSA use ([3]; dupilumab 300 mg q2w + TCS): 58.0%
- % patients with reduction of weekly average peak daily pruritus NRS ≥4 from baseline ([3]; dupilumab 300 mg q2w + TCS): 45.7%
- % change in EASI score from baseline to week 16 ([3]; dupilumab 300 mg qw + TCS): −78.2%
- Mean weekly dose of TCS use during the treatment period ([3]; dupilumab 300 mg qw + TCS): 17.5
- % change from baseline in SCORAD ([3]; dupilumab 300 mg qw + TCS): −62.4%
- % change in baseline in weekly average of peak daily pruritus NRS ([3]; dupilumab 300 mg qw + TCS): −51.7%
- % patients with EASI-75 ([3]; dupilumab 300 mg qw + TCS): 59.1%
- % patients with IGA 0 or 1 and reduction from baseline of ≥2 points ([3]; dupilumab 300 mg qw + TCS): 39.1%
- Change from baseline in % BSA ([3]; dupilumab 300 mg qw + TCS): −37.5 % BSA
- Change from baseline in DLQI ([3]; dupilumab 300 mg qw + TCS): −8.9
- Change from baseline in HADS ([3]; dupilumab 300 mg qw + TCS): −5.2
- Change from baseline in POEM ([3]; dupilumab 300 mg qw + TCS): −11.4
- % patients with EASI-75 for patients with prior CSA use ([3]; dupilumab 300 mg qw + TCS): 56.5%
- % patients with reduction of weekly average peak daily pruritus NRS ≥4 from baseline ([3]; dupilumab 300 mg qw + TCS): 40.4%
- Injection site reactions vs placebo ([3]; dupilumab groups, higher rate in 300 mg qw than 300 mg q2w, no severe ISRs): more common
- tolerability / safety profile ([3]; dupilumab plus concomitant TCS, 16-week treatment period): generally well tolerated
- incidence of conjunctivitis vs placebo ([3]; dupilumab-treated groups, more events in 300 mg Q2W than 300 mg QW): higher incidence
- improvement in at least one AD-associated parameter as compared to placebo [3, 6]: significant improvement
- less TCS used than placebo [3, 6]: up to 50%
- Serious adverse events ([3]; in each treatment group): 2 events
